# Marks after values point to notes of the source that are not given here.
# What was measured:
# α2b1/Collagen I = α2b1/Collagen I (Homo sapiens, UniProt P05556+P17301); experiment: Integrin activation, adhesion α2b1/Collagen I; format: cell-based; set-up: key: Not Active: Not active: ≤2 fold increase in adhesion; conditions: 50% serum; n = 3
# From the text: Activating all integrins is necessary for firm endothelial cell adhesion for extravasation.
# [1] = system: CT26 colon cancer syngeneic tumor; experiment: Study 2: CT26 syngeneic tumor model in Balb/c mice; format: in vivo, Mouse (Mus musculus); conditions: for % Tumor Growth Inhibition: 1 mg/kg IP QD at 4 h; for Average Tumor Volume, Mean: 1 mg/kg IP QD
# Experimental: (§1) Mouse colon carcinoma CT26 cells were obtained from American Type Culture Collection (ATCC), USA. Cells were grown in RPMI-1640 medium (Sigma, Cat # R6504) supplemented with 10% FBS (Invitrogen, Cat #10438-026), and 1% penicillin streptomycin (Thermo Fisher Scientific, Cat #15140-122). To establish allografts, 1 million CT26 cells were suspended in 50 μL of serum-free medium and mixed at 1:1 ratio with matrigel before implanting subcutaneously into the right flank of mice.
# (§2) Prior to inoculation, the skin on the injection site was swabbed with alcohol. To establish allografts, CT26 cells were suspended in serum free medium at a concentration of (1×10^6)/50 μL, mixed with equal volume of matrigel (1:1 ratio) and 100 μL of this mixture was injected to each mouse by subcutaneous implantation using a 1 mL BD syringe attached to a 24 gauge needle.
# (§3) CT26 tumor xenografts were measured after approximately 1 week of cell inoculation when they become palpable. When the average tumor volume reaches around 110 mm^3, animals were randomized into treatment groups group maintaining the average tumor volume of each group similar across groups for Study 1 and Study 2. In Study 3, the animals were randomized on the basis of body weights +1 day post cell implantation.
# (§4) Tumor dimensions (length and breadth) were measured on days 0 (animal randomization based on tumor volume) and thrice weekly thereafter until study termination. Tumor volumes were calculated using the formula (b^2*l)*0.52 where l=length, b=breadth (Dusan Djokovic et al., BMC Cancer, 2010, 10:641). Tumor growth inhibition was calculated after normalizing the tumor volume on a given day to that on day 1.
# (§5) Mean body weight loss and percent changes were calculated for each group. Similarly, mean tumor volume and percent tumor growth inhibition were calculated. The percent tumor growth inhibition (% TGI) as a function of anti-tumor efficacy were computed with respect to untreated vehicle control by comparing to the tumor volumes of day 1 using formula described below: % TGI=[1−(Treatment TVFinal−Treatment TVInitial)/(Control TVFinal−Control TVInitial)]*100
# The test agent, Compound 1 was evaluated in CT26 syngeneic tumor model in Balb/c mice. Compound 1 was administered in mice when the starting tumor volume reached 110±6.9 mm^3 seven days after implantation of CT26 cells.
# [2] = system: CT26 colon cancer syngeneic tumor; experiment: Study 3: CT26 syngeneic tumor model in Balb/c mice, treatment from +1 day after implantation; format: in vivo, Mouse (Mus musculus)
# Experimental: as §1, §2, §3, §4, §5
# The test agent, Compound 1 was evaluated in CT26 syngeneic tumor model in Balb/c mice. Compound 1 was administered in mice +1 day after CT26 cell implantation. Tumors were not measurable at this time, however, tumors became palpable on day 7 and tumors were measured from that point.
# α2b1/Collagen I, sequence (P17301 30-1181): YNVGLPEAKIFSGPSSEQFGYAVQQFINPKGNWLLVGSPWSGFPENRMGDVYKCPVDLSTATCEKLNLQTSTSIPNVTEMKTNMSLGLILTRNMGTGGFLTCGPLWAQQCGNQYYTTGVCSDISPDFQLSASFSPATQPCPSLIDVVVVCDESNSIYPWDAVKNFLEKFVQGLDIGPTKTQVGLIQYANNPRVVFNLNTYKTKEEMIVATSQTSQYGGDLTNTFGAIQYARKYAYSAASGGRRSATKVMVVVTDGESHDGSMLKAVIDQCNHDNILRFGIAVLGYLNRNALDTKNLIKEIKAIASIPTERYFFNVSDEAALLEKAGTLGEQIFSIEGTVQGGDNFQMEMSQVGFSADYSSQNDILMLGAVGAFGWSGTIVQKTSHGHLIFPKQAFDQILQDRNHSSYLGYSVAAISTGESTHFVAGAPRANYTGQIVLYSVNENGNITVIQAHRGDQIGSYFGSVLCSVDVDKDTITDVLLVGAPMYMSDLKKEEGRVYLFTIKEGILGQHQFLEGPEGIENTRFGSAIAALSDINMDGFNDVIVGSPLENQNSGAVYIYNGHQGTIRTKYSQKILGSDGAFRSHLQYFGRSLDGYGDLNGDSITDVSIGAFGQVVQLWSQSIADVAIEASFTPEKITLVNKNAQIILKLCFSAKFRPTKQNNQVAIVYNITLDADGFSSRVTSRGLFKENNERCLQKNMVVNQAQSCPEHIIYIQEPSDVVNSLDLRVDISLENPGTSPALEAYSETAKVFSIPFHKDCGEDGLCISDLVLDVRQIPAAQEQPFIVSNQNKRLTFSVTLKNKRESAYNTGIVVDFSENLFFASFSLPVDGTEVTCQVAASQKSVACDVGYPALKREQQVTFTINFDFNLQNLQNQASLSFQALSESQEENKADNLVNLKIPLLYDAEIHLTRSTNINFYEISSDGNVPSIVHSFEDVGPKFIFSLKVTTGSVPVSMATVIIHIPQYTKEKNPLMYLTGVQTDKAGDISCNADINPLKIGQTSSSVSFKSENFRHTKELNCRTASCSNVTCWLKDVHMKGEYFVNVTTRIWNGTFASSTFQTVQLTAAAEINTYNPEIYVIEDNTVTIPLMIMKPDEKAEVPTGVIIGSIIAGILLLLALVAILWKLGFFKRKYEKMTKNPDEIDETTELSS
# α2b1/Collagen I, sequence (P05556 21-798): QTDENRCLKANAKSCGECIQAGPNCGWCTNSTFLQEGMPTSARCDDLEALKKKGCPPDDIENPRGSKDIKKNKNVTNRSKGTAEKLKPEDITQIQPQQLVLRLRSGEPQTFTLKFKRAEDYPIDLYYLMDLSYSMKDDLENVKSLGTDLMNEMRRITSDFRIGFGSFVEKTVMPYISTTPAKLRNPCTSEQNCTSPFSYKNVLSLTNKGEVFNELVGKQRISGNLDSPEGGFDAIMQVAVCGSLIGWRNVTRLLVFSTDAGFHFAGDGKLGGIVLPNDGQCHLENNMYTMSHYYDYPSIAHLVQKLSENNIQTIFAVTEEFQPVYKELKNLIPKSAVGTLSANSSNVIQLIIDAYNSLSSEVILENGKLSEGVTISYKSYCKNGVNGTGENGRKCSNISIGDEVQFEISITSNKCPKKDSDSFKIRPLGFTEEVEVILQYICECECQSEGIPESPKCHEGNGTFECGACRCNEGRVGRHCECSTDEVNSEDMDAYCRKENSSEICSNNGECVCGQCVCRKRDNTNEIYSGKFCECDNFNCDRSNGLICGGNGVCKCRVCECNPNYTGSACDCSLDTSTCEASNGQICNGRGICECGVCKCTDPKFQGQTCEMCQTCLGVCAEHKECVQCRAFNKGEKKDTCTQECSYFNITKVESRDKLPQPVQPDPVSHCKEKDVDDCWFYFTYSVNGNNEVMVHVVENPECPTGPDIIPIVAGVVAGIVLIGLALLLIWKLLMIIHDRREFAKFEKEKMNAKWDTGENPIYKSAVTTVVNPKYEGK
smiles,measurement,setting,value
"O=C(OCCOCCOCCOC(=O)N(Cc1cccs1)Cc1cccs1)N(Cc1cccs1)Cc1cccs1 [Compound 1, 3-oxo-1-(2-thienyl)-2-(2-thienylmethyl)-4,7,10-trioxa-2-azadodecan-12-yl bis(2-thienylmethyl)carbamate]",Integrin Selectivity EC50 α2b1/Collagen I,α2b1/Collagen I,Not Active
same,% Tumor Growth Inhibition,[1]; Day 2,−6.6%
same,% Tumor Growth Inhibition,[1]; Day 4,33.0%
same,% Tumor Growth Inhibition,[1]; Day 6,38.9%
same,% Tumor Growth Inhibition,[1]; Day 8,31.6%
same,% Tumor Growth Inhibition,[1]; Day 10,33.5%
same,% Tumor Growth Inhibition,[1]; Day 13,46.0%
same,"Average Tumor Volume, Mean",[1]; Day 1,111 mm^3
same,"Average Tumor Volume, Mean",[1]; Day 2,171 mm^3
same,"Average Tumor Volume, Mean",[1]; Day 4,244 mm^3
same,"Average Tumor Volume, Mean",[1]; Day 6,343 mm^3
same,"Average Tumor Volume, Mean",[1]; Day 8,545 mm^3
same,"Average Tumor Volume, Mean",[1]; Day 10,744* mm^3
same,"Average Tumor Volume, Mean",[1]; Day 13,1038^‡ mm^3
same,"Average Tumor Volume, Mean","[2]; 1 mg/kg BID (IP), Day 7",91 mm^3
same,"Average Tumor Volume, Mean","[2]; 1 mg/kg BID (IP), Day 10",159 mm^3
same,"Average Tumor Volume, Mean","[2]; 1 mg/kg BID (IP), Day 12",269 mm^3
same,"Average Tumor Volume, Mean","[2]; 1 mg/kg BID (IP), Day 14",342^‡ mm^3
same,"Average Tumor Volume, Mean","[2]; 1 mg/kg BID (IP), Day 16",512^‡‡ mm^3
same,"Average Tumor Volume, Mean","[2]; 1 mg/kg BID (IP), Day 18",689^‡‡ mm^3
same,"Average Tumor Volume, Mean","[2]; 1 mg/kg IP QD, Day 7",96 mm^3
same,"Average Tumor Volume, Mean","[2]; 1 mg/kg IP QD, Day 10",193 mm^3
same,"Average Tumor Volume, Mean","[2]; 1 mg/kg IP QD, Day 12",312 mm^3
same,"Average Tumor Volume, Mean","[2]; 1 mg/kg IP QD, Day 14",415^† mm^3
same,"Average Tumor Volume, Mean","[2]; 1 mg/kg IP QD, Day 16",566^†† mm^3
same,"Average Tumor Volume, Mean","[2]; 1 mg/kg IP QD, Day 18",768^‡ mm^3
same,inhibition in tumor volume (TGI),"[2]; IP BID (1 mg/kg), day 14, p<0.01",57.6%
same,inhibition in tumor volume (TGI),"[2]; IP QD (1 mg/kg), day 14, p<0.05",46.1%

# Reference: patent publication US12636274B2, “Pharmaceutical compositions and methods for systemic treatment of solid tumors” (7 HILLS INTERESTS LLC, priority 2014, dated 2026)
